Assay results published in US10738042B2, “Phosphonamidates that are Bcl family antagonists for use in clinical management of conditions caused or mediated by senescent cells and for treating cancer” (Unity Biotechnology, priority 2018, dated 2020).

Assays:
[1] = system: 3MR or INK-ATTAC mice exposed to cigarette smoke; assay: Cigarette smoke COPD model, oxygen saturation by pulse oximeter; type: in vivo, mouse; details: after two months of cigarette smoke exposure; FIG. 8
Source text: The mice used in this study include the 3MR strain, described in US 2017/0027139 A1 and in Demaria et al., Dev Cell. 2014 Dec. 22; 31(6): 722-733. The 3MR mouse has a transgene encoding thymidine kinase that converts the prodrug ganciclovir (GCV) to a compound that is lethal to cells. The enzyme in the transgene is placed under control of the p16 promoter, which causes it to be specifically expressed in senescent cells. Treatment of the mice with GCV eliminates senescent cells.
Other mice used in this study include the INK-ATTAC strain, described in US 2015/0296755 A1 and in Baker et al., Nature 2011 Nov. 2; 479(7372):232-236. The INK-ATTAC mouse has a transgene encoding switchable caspase 8 under control of the p16 promoter. The caspase 8 can be activated by treating the mice with the switch compound AP20187, whereupon the caspase 8 directly induces apoptosis in senescent cells, eliminating them from the mouse.
To conduct the experiment, six-week-old 3MR (n=35) or INK-ATTAC (n=35) mice were chronically exposed to cigarette smoke generated from a Teague TE-10 system, an automatically-controlled cigarette smoking machine that produces a combination of side-stream and mainstream cigarette smoke in a chamber, which is transported to a collecting and mixing chamber where varying amounts of air is mixed with the smoke mixture. The COPD protocol was adapted from the COPD core facility at Johns Hopkins University (Rangasamy et al., 2004, J. Clin. Invest. 114:1248-1259; Yao et al., 2012, J. Clin. Invest. 122:2032-2045).
Mice received a total of 6 hours of cigarette smoke exposure per day, 5 days a week for 6 months. Each lighted cigarette (3R4F research cigarettes containing 10.9 mg of total particulate matter (TPM), 9.4 mg of tar, and 0.726 mg of nicotine, and 11.9 mg carbon monoxide per cigarette [University of Kentucky, Lexington, Ky.]) was puffed for 2 seconds and once every minute for a total of 8 puffs, with the flow rate of 1.05 L/min, to provide a standard puff of 35 cm3. The smoke machine was adjusted to produce a mixture of side stream smoke (89%) and mainstream smoke (11%) by smoldering 2 cigarettes at one time. The smoke chamber atmosphere was monitored for total suspended particulates (80-120 mg/m3) and carbon monoxide (350 ppm). […]
After two months of cigarette smoke (CS) exposure, lung function was assessed by monitoring oxygen saturation using the MouseSTAT PhysioSuite™ pulse oximeter (Kent Scientific). […] Mice were monitored for 30 seconds and the average peripheral capillary oxygen saturation (SpO2) measurement over this duration was calculated.

[2] = system: p16, IL-6, MMP13 expression in the operated joint; assay: Osteoarthritis model (ACL surgery), qRT-PCR of senescence markers and SASP factors in operated joints; type: in vivo, mouse; details: 5.8 μg per operated knee intra-articular, 4 weeks post-surgery
Experimental: (§1) The model was implemented as follows. C57BL/6J mice underwent surgery to cut the anterior cruciate ligament of one rear limb to induce osteoarthritis in the joint of that limb. During week 3 and week 4 post-surgery, the mice were treated with 5.8 μg of Nutlin-3A (n=7) per operated knee by intra-articular injection, q.o.d. for 2 weeks. At the end of 4 weeks post-surgery, joints of the mice were monitored for presence of senescent cells, assessed for function, monitored for markers of inflammation, and underwent histological assessment.
Two control groups of mice were included in the studies performed: one group comprising C57BL/6J or 3MR mice that had undergone a sham surgery (n=3) (i.e., surgical procedures followed except for cutting the ACL) and intra-articular injections of vehicle parallel to the GCV (ganciclovir) treated group; and one group comprising C57BL/6J or 3MR mice that had undergone an ACL surgery and received intra-articular injections of vehicle (n=5) parallel to the GCV-treated group. RNA from the operated joints of mice from the Nutlin-3A treated mice was analyzed for expression of SASP factors (mmp3, IL-6) and senescence markers (p16). qRT-PCR was performed to detect mRNA levels.

[3] = system: C57BL/6J mice with ACL surgery-induced osteoarthritis; assay: Osteoarthritis model, weight bearing test; type: in vivo, mouse; details: 4 weeks post-surgery; FIG. 6A
Experimental: as §1
Function of the limbs was assessed 4 weeks post-surgery by a weight bearing test to determine which leg the mice favored. The mice were allowed to acclimate to the chamber on at least three occasions prior to taking measurements. Mice were maneuvered inside the chamber to stand with one hind paw on each scale. The weight that was placed on each hind limb was measured over a three second period. At least three separate measurements were made for each animal at each time point. The results were expressed as the percentage of the weight placed on the operated limb versus the contralateral unoperated limb.

[4] = system: C57BL/6J mice with ACL surgery-induced osteoarthritis; assay: Osteoarthritis model, histopathology of joint tissue; type: in vivo, mouse; details: FIGS. 6B-6D
Experimental: as §1

[5] = system: SASP factors and senescent cell markers in the aortic arch; assay: Atherosclerosis model, RT-PCR of SASP factors and senescent cell markers in aortic arches; type: in vivo, mouse; details: HFD, 25 mg/kg intraperitoneally
Experimental: Two groups of LDLR−/− mice (10 weeks) are fed a high fat diet (HFD) (Harlan Teklad TD.88137) having 42% calories from fat, beginning at Week 0 and throughout the study. Two groups of LDLR−/− mice (10 weeks) are fed normal chow (−HFD). From weeks 0-2, one group of HFD mice and −HFD mice are treated with Nutlin-3A (25 mg/kg, intraperitoneally). One treatment cycle is 14 days treatment, 14 days off. Vehicle is administered to one group of HFD mice and one group of −HFD mice. At week 4 (timepoint 1), one group of mice are sacrificed and to assess presence of senescent cells in the plaques. For the some of the remaining mice, Nutlin-3A and vehicle administration is repeated from weeks 4-6. […]
At the end of timepoint 1, LDLR−/− mice fed a HFD and treated with Nutlin-3A or vehicle were sacrificed (n=3, all groups), and the aortic arches were dissected for RT-PCR analysis of SASP factors and senescent cell markers. Values were normalized to GAPDH and expressed as fold-change versus age-matched, vehicle-treated LDLR−/− mice on a normal diet.
At the end of timepoint 2, LDLR−/− mice fed a HFD and treated with Nutlin-3A or vehicle (n=3 for all groups) were sacrificed, and aortic arches were dissected for RT-PCR analysis of SASP factors and senescent cell markers. Values were normalized to GAPDH and expressed as fold-change versus age-matched, vehicle-treated LDLR−/− mice on a normal diet.

[6] = system: LDLR-/- mice fed a high fat diet; assay: Atherosclerosis model, Sudan IV staining of aortas for plaque; type: in vivo, mouse; details: HFD; 25 mg/kg intraperitoneally; timepoint 3 (week 12); FIG. 9
Experimental: (§2) Two groups of LDLR−/− mice (10 weeks) are fed a high fat diet (HFD) (Harlan Teklad TD.88137) having 42% calories from fat, beginning at Week 0 and throughout the study. Two groups of LDLR−/− mice (10 weeks) are fed normal chow (−HFD). From weeks 0-2, one group of HFD mice and −HFD mice are treated with Nutlin-3A (25 mg/kg, intraperitoneally). One treatment cycle is 14 days treatment, 14 days off. Vehicle is administered to one group of HFD mice and one group of −HFD mice. At week 4 (timepoint 1), one group of mice are sacrificed and to assess presence of senescent cells in the plaques. For the some of the remaining mice, Nutlin-3A and vehicle administration is repeated from weeks 4-6. At week 8 (timepoint 2), the mice are sacrificed and to assess presence of senescent cells in the plaques. The remaining mice are treated with Nutlin-3A or vehicle from weeks 8-10. At week 12 (timepoint 3), the mice are sacrificed and to assess the level of plaque and the number of senescent cells in the plaques.
(§3) At the end of timepoint 3, LDLR−/− mice fed a HFD and treated with Nutlin-3A or vehicle (n=3 for all groups) were sacrificed, and aortas were dissected and stained with Sudan IV to detect the presence of lipid. Body composition of the mice was analyzed by MRI, and circulating blood cells were counted by Hemavet™.

[7] = system: LDLR-/- mice fed a high fat diet; assay: Atherosclerosis model, body composition (MRI) and circulating blood cell counts (Hemavet); type: in vivo, mouse; details: timepoint 3 (week 12)
Experimental: as §2, §3

[8] = system: cancer cells in human patients; details: cited from earlier work

CC[C@H](C(=O)N1CCCC[C@H]1C(=O)O[C@H](CCc1ccc(OC)c(OC)c1)c1cccc(OCC(=O)NCC(CNC(=O)COc2cccc([C@@H](CCc3ccc(OC)c(OC)c3)OC(=O)[C@@H]3CCCCN3C(=O)[C@@H](CC)c3cc(OC)c(OC)c(OC)c3)c2)CN(C)C)c1)c1cc(OC)c(OC)c(OC)c1 [AP2018]
SpO2 levels compared with untreated controls [1]: statistically significant increases

COc1ccc(C2=N[C@@H](c3ccc(Cl)cc3)[C@@H](c3ccc(Cl)cc3)N2C(=O)N2CCNC(=O)C2)c(OC(C)C)c1 [Nutlin-3A]
expression of p16 in the tissue ([2]; q.o.d. for 2 weeks, FIG. 5A): reduced the expression back to below the level of the controls
expression of IL-6 in the tissue ([2]; q.o.d. for 2 weeks, FIG. 5B): reduced the expression back to below the level of the controls
expression of MMP13 in the tissue ([2]; q.o.d. for 2 weeks, FIG. 5C): reduced the expression back to below the level of the controls
senescent cells in the joint [2]: cleared senescent cells from the joint
weight bearing: favoring of the unoperated hind limb over the operated hind limb [3]: abrogated this effect
destruction of the proteoglycan layer (histopathology) [4]: completely abrogated this effect
SpO2 levels compared with untreated controls [1]: statistically significant increases
expression of SASP factors and senescent cell markers MMP3, MMP13, PAI1, p21, IGFBP2, IL-1A, IL-1B ([5]; after one treatment cycle (timepoint 1, week 4)): reduced expression
expression of SASP factors and senescent cell markers in the aortic arch ([5]; multiple treatment cycles (timepoint 2, week 8)): reduced expression of most markers
reduction of surface area covered by plaques in the descending aorta [6]: about 45%
lymphocyte counts versus vehicle treated mice [7]: equivalent
platelet counts versus vehicle treated mice [7]: equivalent

CC1(C)CCC(c2ccc(Cl)cc2)=C(CN2CCN(c3ccc(C(=O)NS(=O)(=O)c4ccc(N[C@H](CCN5CCOCC5)CSc5ccccc5)c(S(=O)(=O)C(F)(F)F)c4)cc3)CC2)C1 [ABT-263]
SpO2 levels compared with untreated controls [1]: statistically significant increases

Nc1nc(O)c2ncn(COC(CO)CO)c2n1 [ganciclovir]
SpO2 levels compared with untreated controls [1]: statistically significant increases

CN(C)CC[C@H](CSc1ccccc1)Nc1ccc(S(=O)(=O)NC(=O)c2ccc(N3CCN(Cc4ccccc4-c4ccc(Cl)cc4)CC3)cc2)cc1[N+](=O)[O-] [ABT-737]
effect against cancer cells in human patients [8]: effective against some types of cancer cells
